# Results published in article PMC9898749, “Cryo-EM structure of the plant nitrate transporter AtCLCa reveals characteristics of the anion-binding site and the ATP-binding pocket” (The Journal of Biological Chemistry, 2022).
# Legend:
# AtCLCa = biological target: T1, AtCLCa (Arabidopsis thaliana, UniProt P92941); assay: cryo-EM structure, […] Å; format: binding; details: 150 mM NaNO3; GDN detergent; pH 7.5; three anion sites (external, central, internal) in transport pathway; identity assigned from buffer; nitrates placed by docking overlapping EM densities
# T1 construct: gene CLC-A; HEK293F (BacMam); purified in GDN; homodimer; modelled residues 53-626, 636-737, 744-766
# T1 sequence (P92941 1-775): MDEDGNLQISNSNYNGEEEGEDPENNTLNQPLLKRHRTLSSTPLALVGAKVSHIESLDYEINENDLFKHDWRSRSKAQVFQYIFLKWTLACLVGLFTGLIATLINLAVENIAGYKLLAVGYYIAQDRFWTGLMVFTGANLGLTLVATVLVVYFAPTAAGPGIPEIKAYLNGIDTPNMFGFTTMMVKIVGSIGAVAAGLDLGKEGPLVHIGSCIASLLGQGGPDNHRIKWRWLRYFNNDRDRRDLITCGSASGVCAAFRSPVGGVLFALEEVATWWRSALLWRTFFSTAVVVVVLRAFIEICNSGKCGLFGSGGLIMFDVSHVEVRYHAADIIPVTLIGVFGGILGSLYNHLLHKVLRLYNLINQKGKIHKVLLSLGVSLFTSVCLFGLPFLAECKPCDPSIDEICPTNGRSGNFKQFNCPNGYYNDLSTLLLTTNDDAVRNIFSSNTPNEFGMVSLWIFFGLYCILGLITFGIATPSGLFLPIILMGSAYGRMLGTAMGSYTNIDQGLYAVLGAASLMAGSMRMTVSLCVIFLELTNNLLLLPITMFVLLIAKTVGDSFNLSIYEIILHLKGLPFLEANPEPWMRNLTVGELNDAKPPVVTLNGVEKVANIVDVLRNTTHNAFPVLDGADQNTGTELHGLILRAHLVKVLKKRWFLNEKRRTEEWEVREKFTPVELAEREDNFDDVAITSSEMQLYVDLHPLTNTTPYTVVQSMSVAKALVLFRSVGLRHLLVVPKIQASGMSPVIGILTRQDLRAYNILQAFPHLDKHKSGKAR
# [1] = biological target: the molecule itself; assay: cryo-EM structure; AtCLCa 4.2 mg/ml in 20 mM Hepes pH 7.5, 150 mM NaNO3, 0.06% GDN; endogenous Mg2+-ATP bound; C2 symmetry imposed; 2.8 Å
Molecule,"cryo-EM structure, 2.8 Å (AtCLCa)",stoichiometry N [1]
O=[N+]([O-])O [nitrate],The ions are most likely nitrate because we purified the protein in a buffer,–
"Arabidopsis thaliana CLCa (natural protein, UniProt P92941 1-775, looked up, AtCLCa, Arabidopsis thaliana chloride channel protein CLC-a, nitrate/proton antiporter; NCBI NP_198905.1; full length (residues 1-775; modelled residues 53-626, 636-737, 744-766); A C-terminal 3C cleavage site stands between the protein and the strep tag; Copurified with endogenous Mg2+-ATP; purified in 150 mM sodium nitrate; also called AtCLCa; source: HEK293F cells, BacMam system, purified …) MDEDGNLQISNSNYNGEEEGEDPENNTLNQPLLKRHRTLSSTPLALVGAKVSHIESLDYEINENDLFKHDWRSRSKAQVFQYIFLKWTLACLVGLFTGLIATLINLAVENIAGYKLLAVGYYIAQDRFWTGLMVFTGANLGLTLVATVLVVYFAPTAAGPGIPEIKAYLNGIDTPNMFGFTTMMVKIVGSIGAVAAGLDLGKEGPLVHIGSCIASLLGQGGPDNHRIKWRWLRYFNNDRDRRDLITCGSASGVCAAFRSPVGGVLFALEEVATWWRSALLWRTFFSTAVVVVVLRAFIEICNSGKCGLFGSGGLIMFDVSHVEVRYHAADIIPVTLIGVFGGILGSLYNHLLHKVLRLYNLINQKGKIHKVLLSLGVSLFTSVCLFGLPFLAECKPCDPSIDEICPTNGRSGNFKQFNCPNGYYNDLSTLLLTTNDDAVRNIFSSNTPNEFGMVSLWIFFGLYCILGLITFGIATPSGLFLPIILMGSAYGRMLGTAMGSYTNIDQGLYAVLGAASLMAGSMRMTVSLCVIFLELTNNLLLLPITMFVLLIAKTVGDSFNLSIYEIILHLKGLPFLEANPEPWMRNLTVGELNDAKPPVVTLNGVEKVANIVDVLRNTTHNAFPVLDGADQNTGTELHGLILRAHLVKVLKKRWFLNEKRRTEEWEVREKFTPVELAEREDNFDDVAITSSEMQLYVDLHPLTNTTPYTVVQSMSVAKALVLFRSVGLRHLLVVPKIQASGMSPVIGILTRQDLRAYNILQAFPHLDKHKSGKAR",–,2
